# Values of other authors as cited in patent US11013707B2, “Administration of oral methyldopa” (ImmunoMolecular Therapeutics, LLC., priority 2018, dated 2021).
# Like-named read-outs stand apart in the source and are kept apart here.
# Columns and labels:
# [1] = man, average
# [2] = in vivo
smiles,measurement,setting,value
"C[C@@](N)(Cc1ccc(O)c(O)c1)C(=O)O [D-α-methyldopa, D-α-Methyl-3,4-dihydroxyphenylalanine]",absorption compared with the L isomer,"humans, Au et al. 1972",much less readily absorbed
same,pharmacologic activity,"literature, patients with hypertension",no pharmacologic activity
"C[C@](N)(Cc1ccc(O)c(O)c1)C(=O)O [α-methyldopa, L-α-Methyl-3,4-dihydroxyphenylalanine]",fraction of the dose available to the systemic circulation as free α-methyldopa,[1]; administered as tablets,27%
same,fraction of the dose available to the systemic circulation as free α-methyldopa,[1]; after an oral solution,25%
same,half-life,[2],about 105 minutes
